Results reported in patent publication US10752587B2, “Homobispiperidinyl derivatives as liver X receptor beta agonists, compositions and their use” (Merck Sharp & Dohme Corp., priority 2015, dated 2020).
Like-named read-outs stand apart in the source and are kept apart here.

Legend:
[1] = target: T1, glutathione-S-transferase (GST) tagged LXRalpha LBD (ligand binding domain) (Homo sapiens, UniProt Q13133); experiment: LanthaScreen TR-FRET Liver X Receptor Coactivator Assay, co-activator recruitment to LXRalpha LBD; assay type: biochemical
T1 construct: purchased Invitrogen pv4655
T1 sequence (Q13133 209-447 limits assumed): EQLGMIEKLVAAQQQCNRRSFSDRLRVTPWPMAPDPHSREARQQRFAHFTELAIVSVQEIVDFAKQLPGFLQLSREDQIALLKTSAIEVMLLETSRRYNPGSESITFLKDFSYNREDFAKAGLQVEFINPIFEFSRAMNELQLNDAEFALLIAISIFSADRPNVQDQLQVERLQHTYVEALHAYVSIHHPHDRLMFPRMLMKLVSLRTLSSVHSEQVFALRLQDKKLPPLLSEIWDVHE
How it was run: (§1)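 Compound-induced coactivator recruitment by the GST-fused ligand binding domain, detected as TR-FRET between Tb-labelled anti-GST antibody and fluorescein-tagged coactivator peptide after room-temperature incubation. IP and Emax expressed versus T0901317 as reference agonist.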

[2] = target: T2, glutathione-S-transferase (GST) tagged LXRbeta LBD (ligand binding domain) (Homo sapiens, UniProt P55055); experiment: LanthaScreen TR-FRET Liver X Receptor Coactivator Assay, co-activator recruitment to LXRbeta LBD; assay type: biochemical
T2 construct: purchased Invitrogen pv4658.pps
T2 sequence (P55055 222-460 limits assumed): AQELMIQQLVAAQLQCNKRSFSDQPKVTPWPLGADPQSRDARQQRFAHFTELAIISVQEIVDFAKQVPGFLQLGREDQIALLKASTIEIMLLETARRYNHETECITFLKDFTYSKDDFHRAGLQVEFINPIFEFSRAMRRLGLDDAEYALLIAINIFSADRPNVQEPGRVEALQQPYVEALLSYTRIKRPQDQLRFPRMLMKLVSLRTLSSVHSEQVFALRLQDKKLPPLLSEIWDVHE
How it was run: as §1

[3] = efficacy at max dose, in relation to reference dual agonist T0901317, read-out: LXR alpha Activity @ max dose (%)
[4] = potency (Inflection Point, IP), co-activator recruitment to LXRalpha LBD, in relation to T0901317
[5] = efficacy at max dose, in relation to reference dual agonist T0901317, read-out: LXR beta Activity @ max dose (%)
[6] = potency (Inflection Point, IP), co-activator recruitment to LXRbeta LBD, in relation to T0901317, read-out: LXR beta IP
[7] = potency (Inflection Point, IP), co-activator recruitment to LXRalpha LBD, in relation to T0901317, read-out: LXR alpha IP

SMILES	Emax [1, 3] [%]	LXR alpha IP (nM) [1, 4]	Emax [2, 5] [%]	EC50 [2, 6] [nM]	EC50 [1, 7] [nM]	EC50 ([1]; co-activator recruitment to GST-LXRalpha LBD, TR-FRET, read-out: LXR alpha IP (Inflection Point, potency)) [nM]	Emax ([1]; efficacy in relation to reference dual agonist T0901317, read-out: LXR alpha Activity @ max dose) [%]	EC50 ([2]; co-activator recruitment to GST-LXRbeta LBD, TR-FRET, read-out: LXR beta IP (Inflection Point, potency)) [nM]	Emax ([2]; efficacy in relation to reference dual agonist T0901317, read-out: LXR beta Activity @ max dose) [%]
CN(C)C(=O)c1ccc(N2CCC(CC3CN(C(=O)[C@](O)(c4cc(Cl)cc(Cl)c4)C(F)(F)F)C3)CC2)cc1Cl [Example 2-67, 2-chloro-4-[4-({1-[(2R)-2-(3,5-dichloro-phenyl)-3,3,3-trifluoro-2-hydroxy-propanoyl]azetidin-3-yl}methyl)piperidin-1-yl]-N,N-dimethyl-benzamide]	9	NO IP	77	19	–	–	–	–	–
O=C(c1ccc(N2CCC(CC3CCN(C(=O)[C@](O)(c4ccccc4)C(F)(F)F)CC3)CC2)cc1Cl)N1CC(F)(F)C1 [Example 4-8, (2R)-3-{4-[(1-{3-chloro-4-[(3,3-difluoroazetidin-1-yl)carbonyl]phenyl}piperidin-4-yl)methyl]piperidin-1-yl}-1,1,1-trifluoro-3-oxo-2-phenylpropan-2-ol]	37	–	93	172	984	–	–	–	–
CN(C)CCNC(=O)c1ccc(N2CCC(CC3CCN(C(=O)[C@](O)(c4ccccc4)C(F)(F)F)CC3)CC2)cc1Cl [Example 4-16, 2-chloro-N-[2-(dimethylamino)ethyl]-4-[4-({1-[(2R)-3,3,3-trifluoro-2-hydroxy-2-phenylpropanoyl]piperidin-4-yl}methyl)piperidin-1-yl]benzamide]	28	–	64	183	688	–	–	–	–
COc1cccc([C@@](O)(C(=O)N2CCC(CC3CCN(c4ccc(C(=O)N(C)C)c(Cl)c4)CC3)CC2)C(F)(F)F)n1 (stereo in doubt) [Example 2-165, 2-chloro-N,N-dimethyl-4-[4-({1-[3,3,3-trifluoro-2-hydroxy-2-(6-methoxy-pyridin-2-yl)propanoyl]piperidin-4-yl}methyl)piperidin-1-yl]benzamide]	18	NO IP	108	2.5	–	–	–	–	–
CN(C)C(=O)c1ccc(N2CCC(CC3CCN(C(=O)[C@](O)(c4cccc(Cl)c4)C(F)(F)F)CC3)CC2)cc1Cl [Example 2-86, 2-chloro-4-[4-({1-[(2R)-2-(3-chloro-phenyl)-3,3,3-trifluoro-2-hydroxy-propanoyl]piperidin-4-yl}methyl)piperidin-1-yl]-N,N-dimethyl-benzamide]	22	–	68	6	98	–	–	–	–
CN(C)C(=O)c1ccc(N2CCC(CC3CCN(C(=O)[C@](O)(c4cccc(Br)c4)C(F)(F)F)CC3)CC2)cc1Cl [Example 2-83, 4-[4-({1-[(2R)-2-(3-bromo-phenyl)-3,3,3-trifluoro-2-hydroxy-propanoyl]piperidin-4-yl}methyl)piperidin-1-yl]-2-chloro-N,N-dimethyl-benzamide]	26	–	68	4	83	–	–	–	–
CN(C)C(=O)c1ccc(N2CCC(CC3CCN(C(=O)[C@](O)(c4ccccc4)C(F)(F)F)CC3)CC2)cc1Cl [Example 2-12, 2-chloro-N,N-dimethyl-4-[4-({1-[(2R)-3,3,3-trifluoro-2-hydroxy-2-phenylpropanoyl]piperidin-4-yl}methyl)piperidin-1-yl]benzamide]	25	–	79	–	–	–	–	–	–
CO[C@](C(=O)N1CCC(OC2CCN(c3ccc(C(=O)N(C)C)c(Cl)c3)CC2)CC1)(c1ccccc1)C(F)(F)F [Example 2-20, 2-chloro-N,N-dimethyl-4-[4-({1-[(2S)-3,3,3-trifluoro-2-methoxy-2-phenylpropanoyl]piperidin-4-yl}oxy)piperidin-1-yl]benzamide]	4	NO IP	81	335	–	–	–	–	–
Cc1cccc([C@@](O)(C(=O)N2CCC(CC3CCN(c4ccc(C(=O)N(C)C)c(C)c4)CC3)CC2)C(F)(F)F)c1 [Example 2-157, N,N,2-trimethyl-4-[4-({1-[(2R)-3,3,3-trifluoro-2-hydroxy-2-(3-methylphenyl)propanoyl]piperidin-4-yl}methyl)piperidin-1-yl]benzamide]	9	NO IP	43	16	–	–	–	–	–
Cc1cc(N2CCC(CC3CCN(C(=O)[C@](O)(c4cccc(C(F)(F)F)c4)C(F)(F)F)CC3)CC2)ccc1C(=O)N(C)C [Example 2-148, N,N,2-trimethyl-4-{4-[(1-{(2R)-3,3,3-trifluoro-2-hydroxy-2-[3-(trifluoromethyl)phenyl]propanoyl}piperidin-4-yl)methyl]piperidin-1-yl}benzamide]	22	–	62	24	400	–	–	–	–
CCN(C)C(=O)c1ccc(N2CCC(CC3CCN(C(=O)[C@](O)(c4ccccc4)C(F)(F)F)CC3)CC2)cc1Cl [Example 4-12, 2-chloro-N-ethyl-N-methyl-4-[4-({1-[(2R)-3,3,3-trifluoro-2-hydroxy-2-phenylpropanoyl]piperidin-4-yl}methyl)piperidin-1-yl]benzamide]	34	–	83	14	166	–	–	–	–
CN(C)C(=O)c1ccc(N2CCC(CC3CCN(C(=O)C(N)(c4ccccc4)C(F)(F)C(F)(F)F)CC3)CC2)cc1Cl (stereo not shown) [Example 2-123, 4-(4-{[1-(2-amino-3,3,4,4,4-pentafluoro-2-phenylbutanoyl)piperidin-4-yl]methyl}piperidin-1-yl)-2-chloro-N,N-dimethyl-benzamide]	21	–	106	335	1470	–	–	–	–

Next, values leading:

Emax [1, 3] [%]	LXR alpha IP (nM) [1, 4]	Emax [2, 5] [%]	EC50 [2, 6] [nM]	EC50 [1, 7] [nM]	EC50 ([1]; co-activator recruitment to GST-LXRalpha LBD, TR-FRET, read-out: LXR alpha IP (Inflection Point, potency)) [nM]	Emax ([1]; efficacy in relation to reference dual agonist T0901317, read-out: LXR alpha Activity @ max dose) [%]	EC50 ([2]; co-activator recruitment to GST-LXRbeta LBD, TR-FRET, read-out: LXR beta IP (Inflection Point, potency)) [nM]	Emax ([2]; efficacy in relation to reference dual agonist T0901317, read-out: LXR beta Activity @ max dose) [%]	SMILES
16	NO IP	64	10	–	–	–	–	–	CC(C)Oc1cccc([C@@](O)(C(=O)N2CCC(C)(CC3CCN(c4ccc(C(=O)N(C)C)c(Cl)n4)CC3)CC2)C(F)(F)F)c1 [Example 7-48, 2-chloro-N,N-dimethyl-6-{4-[(4-methyl-1-{(2R)-3,3,3-trifluoro-2-hydroxy-2-[3-(1-methylethoxy)phenyl]propanoyl}piperidin-4-yl)methyl]piperidin-1-yl}pyridine-3-carboxamide]
–	–	–	–	–	2730	24	497	58	CN(C)C(=O)c1ccc(N2CCC(CC3CCN(S(=O)(=O)c4ccc(F)cc4)CC3)CC2)cc1Cl [Example 13-14, 2-chloro-4-[4-({1-[(4-fluorophenyl)sulfonyl]-piperidin-4-yl}methyl)-piperidin-1-yl]-N,N-dimethylbenzamide]
14	NO IP	92	22	–	–	–	–	–	COc1cccc([C@@](O)(C(=O)N2CC(CC3CCN(c4ccc(C(=O)N(C)C)c(Cl)n4)CC3)C2)C(F)(F)F)c1 [Example 7-45, 2-chloro-N,N-dimethyl-6-[4-({1-[(2R)-3,3,3-trifluoro-2-hydroxy-2-(3-methoxyphenyl)propanoyl]azetidin-3-yl}methyl)piperidin-1-yl]pyridine-3-carboxamide]
32	–	91	17	163	–	–	–	–	CNC(=O)c1ccc(N2CCC(CC3CCN(C(=O)[C@](O)(c4cccc(C(C)C)c4)C(F)(F)F)CC3)CC2)nc1Cl [Example 7-149, 2-chloro-N-methyl-6-{4-[(1-{(2R)-3,3,3-trifluoro-2-hydroxy-2-[3-(1-methylethyl)phenyl]propanoyl}piperidin-4-yl)methyl]piperidin-1-yl}pyridine-3-carboxamide]
13	NO IP	67	10	–	–	–	–	–	CN(C)C(=O)c1ccc(N2CCC(CC3CCN(C(=O)[C@](O)(c4cccc(OC(F)(F)F)c4)C(F)(F)F)CC3)CC2)nc1Cl [Example 7-75, 2-chloro-N,N-dimethyl-6-{4-[(1-{(2R)-3,3,3-trifluoro-2-hydroxy-2-[3-(trifluoromethoxy)phenyl]propanoyl}piperidin-4-yl)methyl]piperidin-1-yl}pyridine-3-carboxamide]
23	–	71	153	2180	–	–	–	–	Cc1cc(N2CCC(CC3CCN(C(=O)[C@](O)(c4ccccc4)C(F)(F)F)CC3)CC2)ncc1C(=O)N(C)C [Example 7-3, N,N,4-trimethyl-6-[4-({1-[(2R)-3,3,3-trifluoro-2-hydroxy-2-phenylpropanoyl]piperidin-4-yl}methyl)piperidin-1-yl]pyridine-3-carboxamide]
